For one molecule, Kd and Tm results are on record in publication PMC5037267, “Crystal Structure of a Group I Energy Coupling Factor Vitamin Transporter S Component in Complex with Its Cognate Substrate” (Cell Chemical Biology, 2016).

Usually Kd stands for the free concentration of one partner at which half of the binding sites on the other are occupied at equilibrium, for simple one-to-one binding. A higher Kd goes with a looser complex.

The structures appear in SMILES notation. Numbering of substitutions follows the chain as printed.

What all share (type): binding
The target of test [1] is T1, YkoE (Bacillus subtilis, UniProt O34738).
T1 construct: isolated S component without YkoC/YkoD; N-terminal His6 tag cut by TEV; E. coli Lemo21; n-decyl-beta-D-maltopyranoside; four N-terminal residues not seen in crystal
T1 sequence (O34738 1-199 limits assumed): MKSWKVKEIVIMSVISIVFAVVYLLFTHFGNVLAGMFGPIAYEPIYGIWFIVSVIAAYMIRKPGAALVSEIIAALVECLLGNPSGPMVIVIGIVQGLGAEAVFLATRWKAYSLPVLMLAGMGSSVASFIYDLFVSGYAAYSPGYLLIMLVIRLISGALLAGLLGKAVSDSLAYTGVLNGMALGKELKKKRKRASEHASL
As to the kind of experiment: intrinsic Trp fluorescence quenching titration.

For test [2], the target named is T2, YkoE (Bacillus subtilis, UniProt O34738, D131A).
T2 construct: isolated S component without YkoC/YkoD; N-terminal His6 tag cut by TEV; E. coli Lemo21; n-decyl-beta-D-maltopyranoside; four N-terminal residues not seen in crystal
T2 sequence (O34738 1-199 D131A limits assumed): T1 sequence (O34738 1-199 limits assumed) with D131A
As to the kind of experiment: intrinsic Trp fluorescence quenching titration.

Test [3] concerns the target T3, YkoE (Bacillus subtilis, UniProt O34738, E77A).
T3 construct: isolated S component without YkoC/YkoD; N-terminal His6 tag cut by TEV; E. coli Lemo21; n-decyl-beta-D-maltopyranoside; four N-terminal residues not seen in crystal
T3 sequence (O34738 1-199 E77A limits assumed): T1 sequence (O34738 1-199 limits assumed) with E77A
As to the kind of experiment: intrinsic Trp fluorescence quenching titration.

For test [4], the target named is T4, YkoE (Bacillus subtilis, UniProt O34738, Y46A).
T4 construct: isolated S component without YkoC/YkoD; N-terminal His6 tag cut by TEV; E. coli Lemo21; n-decyl-beta-D-maltopyranoside; four N-terminal residues not seen in crystal
T4 sequence (O34738 1-199 Y46A limits assumed): T1 sequence (O34738 1-199 limits assumed) with Y46A
As to the kind of experiment: intrinsic Trp fluorescence quenching titration.

For test [5], the target named is T5, YkoE (Bacillus subtilis, UniProt O34738, Q95A).
T5 construct: isolated S component without YkoC/YkoD; N-terminal His6 tag cut by TEV; E. coli Lemo21; n-decyl-beta-D-maltopyranoside; four N-terminal residues not seen in crystal
T5 sequence (O34738 1-199 Q95A limits assumed): T1 sequence (O34738 1-199 limits assumed) with Q95A
As to the kind of experiment: intrinsic Trp fluorescence quenching titration. From the text:
intrinsic Trp fluorescence quenching titration on YkoE | with the Q95A mutation showing the largest effect on affinity

Test [6] addresses T1, YkoE. Briefly: CD thermal melting at […] nm. Conditions: YkoE from M9 medium plus excess thiamine; reference without added thiamine 68 °C; pH 7.1, 200 mM NaCl; 1 °C/min.

On to `Cc1ncc(C[n+]2csc(CCO)c2C)c(N)n1` [thiamine], for which the dissociation constant (Kd) in test [1] was ~4.5 nM; in test [2], 9.4 ± 0.9 nM; in test [3], 9.3 ± 0.6 nM; in test [4], 10.3 ± 0.8 nM; in test [5], 26.9 ± 1.6 nM. Moreover, in test [6], the Tm stood at 75 °C.
